Measured values taken from patent US9994617B2, “Modulation of structured polypeptide specificity” (BICYCLE THERAPEUTICS LIMITED, priority 2011, dated 2018).
Numbered stars: 1 amine (or outer) side, 2 acyl side, 3 side chain; on linkers, the order of the positions; unused ones are H or OH. Bridge positions count the residues as written; N and C are the ends. Square brackets hold non-standard residues; d marks the D form. Peptide text beside a SMILES is read from it. NMeW = CN[C@@H](Cc1c[nH]c2ccccc12)C(=O)O; TBMB = c1c(C[*:1])cc(C[*:3])cc1C[*:2]; NMeC = CN[C@@H](CS)C(=O)O; NMeS = CN[C@@H](CO)C(=O)O; NMeA = CN[C@@H](C)C(=O)O

Target: human plasma kallikrein (hPK) (Homo sapiens, UniProt P03952)
Assay: Enzyme inhibition assay, human plasma kallikrein
Conditions: for fold reduction in affinity to kallikrein compared to wildtype peptide: versus Ac-06-34-18(TMB)-NH2

SMILES	Ki [nM]	fold reduction in affinity to kallikrein compared to wildtype peptide [fold]
CC(=O)N[C@H]1CSCc2cc3cc(c2)CSC[C@H](NC(=O)[C@H](CCCNC(=N)N)NC(=O)[C@H](C)NC(=O)[C@@H]2CCCN2C(=O)[C@H](Cc2c[nH]c4ccccc24)N(C)C(=O)[C@H](CO)NC1=O)C(=O)N[C@@H](CC(C)C)C(=O)N[C@@H](Cc1c[nH]cn1)C(=O)N[C@@H](CCC(N)=O)C(=O)N[C@@H](CC(=O)O)C(=O)N[C@@H](CC(C)C)C(=O)N[C@H](C(N)=O)CSC3 [Ac-(06-34-18) NMeTrp2] (Ac-CS[NMeW]PARCLHQDLC-NH2; linker 1-7-13 via TBMB)	228	
CC(=O)N[C@H]1CSCc2cc3cc(c2)CSC[C@H](NC(=O)[C@H](CCCNC(=N)N)NC(=O)[C@H](C)NC(=O)[C@H](C)NC(=O)[C@H](C)NC(=O)[C@H](CO)NC1=O)C(=O)N[C@@H](CC(C)C)C(=O)N[C@@H](Cc1c[nH]cn1)C(=O)N[C@@H](CCC(N)=O)C(=O)N[C@@H](CC(=O)O)C(=O)N[C@@H](CC(C)C)C(=O)N[C@H](C(N)=O)CSC3 [Ac-(06-34-18) A2A3] (Ac-CSAAARCLHQDLC-NH2; linker 1-7-13 via TBMB)	18500	
CC(C)C[C@@H]1NC(=O)[C@H](CCC(=O)O)NC(=O)[C@H](CCCNC(=N)N)NC(=O)[C@H]([C@@H](C)O)NC(=O)[C@H](CC(C)C)NC(=O)[C@@H]2CSCc3cc(cc(c3)CSC[C@@H](C(=O)N[C@@H](C)C(N)=O)NC1=O)CSC[C@H](NC(=O)[C@H](C)N)C(=O)N[C@@H](C)C(=O)N[C@@H](Cc1c[nH]c3ccccc13)C(=O)N1CCC[C@H]1C(=O)N[C@@H](C)C(=O)N[C@@H](CCCCN)C(=O)N2 [Peptide 1B1] (H-ACAWPAKCLTRELCA-NH2; linker 2-8-14 via TBMB)	8.1	
CC[C@H](C)[C@@H]1NC(=O)[C@H](C(C)C)NC(=O)[C@H](CCCNC(=N)N)NC(=O)[C@@H]2CSCc3cc(cc(c3)CSC[C@@H](C(=O)N[C@@H](C)C(N)=O)NC1=O)CSC[C@H](NC(=O)[C@H](C)N)C(=O)N[C@@H](Cc1ccccc1)C(=O)N[C@@H](CC(=O)O)C(=O)N1CCC[C@H]1C(=O)N2 [Peptide 3B9] (H-ACFDPCRVICA-NH2; linker 2-6-10 via TBMB)	90.8	
CC(=O)N[C@H]1CSCc2cc3cc(c2)CSC[C@H](NC(=O)[C@H](CCCNC(N)=O)NC(=O)[C@H](C)NC(=O)[C@@H]2CCCN2C(=O)[C@H](Cc2c[nH]c4ccccc24)NC(=O)[C@H](CO)NC1=O)C(=O)N[C@@H](CC(C)C)C(=O)N[C@@H](Cc1c[nH]cn1)C(=O)N[C@@H](CCC(N)=O)C(=O)N[C@@H](CC(=O)O)C(=O)N[C@@H](CC(C)C)C(=O)N[C@H](C(N)=O)CSC3 [Ac-(06-34-18) CitS]	7860	
CC(=O)N[C@H]1CSCc2cc3cc(c2)CSC[C@H](NC(=O)[C@H](CCCNC(=N)N)NC(=O)[C@H](Cc2c[nH]c4ccccc24)NC(=O)[C@H](C)NC(=O)[C@H](CO)NC(=O)[C@@H]2CCCN2C1=O)C(=O)N[C@@H](CC(C)C)C(=O)N[C@@H](Cc1c[nH]cn1)C(=O)N[C@@H](CCC(N)=O)C(=O)N[C@@H](CC(=O)O)C(=O)N[C@@H](CC(C)C)C(=O)N[C@H](C(N)=O)CSC3 [Ac-(06-34-18) Scram1] (Ac-CPSAWRCLHQDLC-NH2; linker 1-7-13 via TBMB)	1090	
CC(C)[C@@H]1NC(=O)[C@H](CCCNC(=N)N)NC(=O)[C@@H]2CSCc3cc(cc(c3)CSC[C@@H](C(=O)N[C@@H](C)C(N)=O)NC(=O)[C@H](CC(N)=O)NC1=O)CSC[C@H](NC(=O)[C@H](C)N)C(=O)N[C@@H](Cc1ccccc1)C(=O)N[C@@H](CC(N)=O)C(=O)N[C@@H](CCCCN)C(=O)N2 [Peptide 06-64] (H-ACFNKCRVNCA-NH2; linker 2-6-10 via TBMB)	4.8	
CC(=O)N[C@H]1CSCc2cc3cc(c2)CSC[C@H](NC(=O)[C@@H](CCCNC(=N)N)NC(=O)[C@H](C)NC(=O)[C@@H]2CCCN2C(=O)[C@H](Cc2c[nH]c4ccccc24)NC(=O)[C@H](CO)NC1=O)C(=O)N[C@@H](CC(C)C)C(=O)N[C@@H](Cc1c[nH]cn1)C(=O)N[C@@H](CCC(N)=O)C(=O)N[C@@H](CC(=O)O)C(=O)N[C@@H](CC(C)C)C(=O)N[C@H](C(N)=O)CSC3 [Ac-(06-34-18) D-Arg5]	52	300
CC(=O)N[C@H]1CSCc2cc3cc(c2)CSC[C@@H](C(=O)N[C@@H](CC(C)C)C(=O)N[C@@H](Cc2c[nH]cn2)C(=O)N[C@@H](CCC(N)=O)C(=O)N[C@@H](CC(=O)O)C(=O)N[C@@H](CC(C)C)C(=O)N[C@H](C(N)=O)CSC3)N(C)C(=O)[C@H](CCCNC(=N)N)NC(=O)[C@H](C)NC(=O)[C@@H]2CCCN2C(=O)[C@H](Cc2c[nH]c3ccccc23)NC(=O)[C@H](CO)NC1=O [Ac-(06-34-18) NMeCys2] (Ac-CSWPAR[NMeC]LHQDLC-NH2; linker 1-7-13 via TBMB)	418	
CC(=O)N[C@H]1CSCc2cc3cc(c2)CSC[C@H](NC(=O)[C@H](CCCNC(=N)N)NC(=O)[C@H](C)NC(=O)[C@@H]2CCCN2C(=O)[C@@H](Cc2c[nH]c4ccccc24)NC(=O)[C@H](CO)NC1=O)C(=O)N[C@@H](CC(C)C)C(=O)N[C@@H](Cc1c[nH]cn1)C(=O)N[C@@H](CCC(N)=O)C(=O)N[C@@H](CC(=O)O)C(=O)N[C@@H](CC(C)C)C(=O)N[C@H](C(N)=O)CSC3 [Ac-(06-34-18) D-Trp2]	7560	45000
CC(=O)N[C@H]1CSCc2cc3cc(c2)CSC[C@H](NC(=O)[C@H](Cc2ccc(NC(=N)N)cc2)NC(=O)[C@H](C)NC(=O)[C@@H]2CCCN2C(=O)[C@H](Cc2c[nH]c4ccccc24)NC(=O)[C@H](CO)NC1=O)C(=O)N[C@@H](CC(C)C)C(=O)N[C@@H](Cc1c[nH]cn1)C(=O)N[C@@H](CCC(N)=O)C(=O)N[C@@H](CC(=O)O)C(=O)N[C@@H](CC(C)C)C(=O)N[C@H](C(N)=O)CSC3 [Ac-(06-34-18) 4GuanPhe5]	0.3	2
CC(=O)N[C@H]1CSCc2cc3cc(c2)CSC[C@H](NC(=O)[C@H](CCCNC(=N)N)NC(=O)[C@H](CO)NC(=O)[C@H](Cc2c[nH]c4ccccc24)NC(=O)[C@@H]2CCCN2C(=O)[C@H](C)NC1=O)C(=O)N[C@@H](CC(C)C)C(=O)N[C@@H](Cc1c[nH]cn1)C(=O)N[C@@H](CCC(N)=O)C(=O)N[C@@H](CC(=O)O)C(=O)N[C@@H](CC(C)C)C(=O)N[C@H](C(N)=O)CSC3 [Ac-(06-34-18) Scram3] (Ac-CAPWSRCLHQDLC-NH2; linker 1-7-13 via TBMB)	1890	
CC(=O)N[C@H]1CSCc2cc3cc(c2)CSC[C@H](NC(=O)[C@H](CCCNC(=N)N)NC(=O)[C@@H](C)NC(=O)[C@@H]2CCCN2C(=O)[C@H](Cc2c[nH]c4ccccc24)NC(=O)[C@H](CO)NC1=O)C(=O)N[C@@H](CC(C)C)C(=O)N[C@@H](Cc1c[nH]cn1)C(=O)N[C@@H](CCC(N)=O)C(=O)N[C@@H](CC(=O)O)C(=O)N[C@@H](CC(C)C)C(=O)N[C@H](C(N)=O)CSC3 [Ac-(06-34-18) D-Ala4]	1200	7000
CC(=O)N[C@H]1CSCc2cc3cc(c2)CSC[C@H](NC(=O)[C@H](CCCNC(=N)N)NC(=O)[C@H](C)NC(=O)[C@H]2CCCN2C(=O)[C@H](Cc2c[nH]c4ccccc24)NC(=O)[C@H](CO)NC1=O)C(=O)N[C@@H](CC(C)C)C(=O)N[C@@H](Cc1c[nH]cn1)C(=O)N[C@@H](CCC(N)=O)C(=O)N[C@@H](CC(=O)O)C(=O)N[C@@H](CC(C)C)C(=O)N[C@H](C(N)=O)CSC3 [Ac-(06-34-18) D-Pro3]	680	
CC(=O)N[C@H]1CSCc2cc3cc(c2)CSC[C@H](NC(=O)[C@H](CCNC(=N)N)NC(=O)[C@H](C)NC(=O)[C@@H]2CCCN2C(=O)[C@H](Cc2c[nH]c4ccccc24)NC(=O)[C@H](CO)NC1=O)C(=O)N[C@@H](CC(C)C)C(=O)N[C@@H](Cc1c[nH]cn1)C(=O)N[C@@H](CCC(N)=O)C(=O)N[C@@H](CC(=O)O)C(=O)N[C@@H](CC(C)C)C(=O)N[C@H](C(N)=O)CSC3 [Ac-(06-34-18) Agb5]	83	
CC(=O)N[C@H]1CSCc2cc3cc(c2)CSC[C@H](NC(=O)[C@H](CCCNC(=N)N)NC(=O)[C@H](C)NC(=O)[C@H](CCC(N)=O)NC(=O)[C@H](C)NC(=O)[C@H](CO)NC1=O)C(=O)N[C@@H](CC(C)C)C(=O)N[C@@H](Cc1c[nH]cn1)C(=O)N[C@@H](CCC(N)=O)C(=O)N[C@@H](CC(=O)O)C(=O)N[C@@H](CC(C)C)C(=O)N[C@H](C(N)=O)CSC3 [Ac-(06-34-18) A2Q3] (Ac-CSAQARCLHQDLC-NH2; linker 1-7-13 via TBMB)	15800	
CC(C)[C@@H]1NC(=O)[C@H](CCCNC(=N)N)NC(=O)[C@@H]2CSCc3cc(cc(c3)CSC[C@@H](C(=O)N[C@@H](C)C(N)=O)NC(=O)[C@H](CC(N)=O)NC1=O)CSC[C@H](NC(=O)[C@H](C)N)C(=O)N[C@@H](Cc1ccccc1)C(=O)N[C@@H](CCCCN)C(=O)N[C@@H](CC(N)=O)C(=O)N2 [Peptide 3B2] (H-ACFKNCRVNCA-NH2; linker 2-6-10 via TBMB)	9	
CC(=O)N[C@H]1CSCc2cc3cc(c2)CSC[C@H](NC(=O)[C@H](CCCNC(=N)N)NC(=O)[C@H](C)NC(=O)[C@@H]2CCCN2C(=O)[C@H](Cc2c[nH]c4ccccc24)NC(=O)[C@H](CO)N(C)C1=O)C(=O)N[C@@H](CC(C)C)C(=O)N[C@@H](Cc1c[nH]cn1)C(=O)N[C@@H](CCC(N)=O)C(=O)N[C@@H](CC(=O)O)C(=O)N[C@@H](CC(C)C)C(=O)N[C@H](C(N)=O)CSC3 [Ac-(06-34-18) NMeSer1] (Ac-C[NMeS]WPARCLHQDLC-NH2; linker 1-7-13 via TBMB)	0.5	
C[C@H](N)C(=O)N[C@H]1CSCc2cc3cc(c2)CSC[C@H](NC(=O)[C@H](CC(N)=O)NC(=O)[C@H](CC(N)=O)NC(=O)[C@H](Cc2ccc(O)cc2)NC(=O)CNC(=O)CNC1=O)C(=O)N[C@@H](CCCNC(=N)N)C(=O)N[C@@H](C)C(=O)N[C@@H](Cc1ccccc1)C(=O)N[C@@H](CO)C(=O)N[C@@H](Cc1ccc(O)cc1)C(=O)N[C@H](C(=O)N[C@@H](C)C(N)=O)CSC3 [Peptide 1F7] (H-ACGGYNNCRAFSYCA-NH2; linker 2-8-14 via TBMB)	2.2	
CC(=O)N[C@H]1CSCc2cc3cc(c2)CSC[C@H](NC(=O)[C@H](CCCNC(=N)N)NC(=O)[C@H](C)N(C)C(=O)[C@@H]2CCCN2C(=O)[C@H](Cc2c[nH]c4ccccc24)NC(=O)[C@H](CO)NC1=O)C(=O)N[C@@H](CC(C)C)C(=O)N[C@@H](Cc1c[nH]cn1)C(=O)N[C@@H](CCC(N)=O)C(=O)N[C@@H](CC(=O)O)C(=O)N[C@@H](CC(C)C)C(=O)N[C@H](C(N)=O)CSC3 [Ac-(06-34-18) NMeAla4] (Ac-CSWP[NMeA]RCLHQDLC-NH2; linker 1-7-13 via TBMB)	343	
